Data: paper PMC6150271, “‘Click Chemistry’ Synthesis of Novel Natural Product-Like Caged Xanthones Bearing a 1,2,3-Triazole Moiety with Improved Druglike Properties as Orally Active Antitumor Agents” (Molecules : A Journal of Synthetic Chemistry and Natural …, 2017)
≈ marks a conversion by molar mass, not a printed value. Like-named read-outs stand apart in the source and are kept apart here. Marks after values point to notes of the source that are not given here.

Columns and labels:
[1] = tested on: human hepatocellular carcinoma HepG2 cell line; assay: MTT antiproliferative assay, HepG2; type: cell-based; settings: 72 h
Experimental: (§1) The antiproliferative activity of the ten synthesized caged xanthone derivatives, as well as the lead compound DDO-6101 and GA were assessed with the 3-(4,5-dimethylthiazol-2-yl)-2,5-diphenyltetrazolium bromide (MTT) assay, as previously reported, against six human cancer cell lines, including the human lung carcinoma A549 cell line, taxol-resistant A549 cell line (A549/taxol), cisplatin-resistant A549 cell line (A549/cisplatin), the human hepatocellular carcinoma HepG2 cell line, the human colon carcinoma HCT-116 cell line, and the human glioblastoma U251 cell line. DDO-6101 and GA were used as positive controls for the in vitro assay.
(§2) Cancer cell lines were obtained from Cell Bank of Shanghai, Chinese Academy of Sciences. Cells were cultured in 90% RPMI 1640 medium (GIBCO, Invitrogen Corporation, New York, NY, USA) supplemented with 10% fetal bovine serum (Sijiqing Biotechnology Co., Hangzhou, China), 100 U/mL benzyl penicillin, and 100 μg/mL streptomycin in a humidified environment with 5% CO2 at 37 °C. All the tested compounds were dissolved in DMSO at a concentration of 0.01 mol/L and stored at −4 °C.
(§3) The inhibition of tumour cell growth was measured by a modified tetrazolium (MTT) salt assay. Cells were cultured in a 96-well plate and treated with culture medium alone or different concentrations of the compounds. The cells were incubated for 72 h, and then the MTT assay reagent was added. After a 4 h incubation, the formazan product was quantitated at 570 nm. The IC50 values (the concentrations that gave rise to 50% inhibition of cell viability) were calculated using GraphPad Prism 6 using a variable slope (four parameters).

[2] = tested on: human colon carcinoma HCT-116 cell line; assay: MTT antiproliferative assay, HCT116; type: cell-based; settings: 72 h
Experimental: as §1, §2, §3

[3] = tested on: lung cancer A549 transplanted mouse model; assay: In vivo tumor growth inhibition, per os administration; set-up: species or system Kunming mice; settings: for Body Weight After-Dose / Inhibitory Rate / Weight of Tumor: 50 mg/kg daily, one week; for Body Weight Pre-Dose: 50 mg/kg
Text: Subsequently, 8g was set to determine further its in vivo efficacy with per os administration on the growth of inoculated A549 in mice using DDO-6101 as a comparison control. […] Thus, compound 8g was identified as a new and orally-active natural-product-like caged xanthone and also a promising antitumor agent for further clinical development.
(§4) Kunming mice with body weights of 18–22 g were transplanted with lung cancer A549 cells according to protocols of transplant tumor research, as previously reported. Twenty-four hours after tumor transplantation, animals were weighed and randomly divided into five groups. All test drugs were given […] 24 h after tumor transplantation. The treated groups were intravenously injected or administered per os different doses of test compounds, respectively. The negative control group received 0.9% normal saline. Treatments were conducted at a frequency of one dose per two days for the intravenous group or one dose per day for the per os group for two or one week, respectively. All animals were sacrificed 24 h after the final treatment. All data are presented as mean ± SD and the statistical significance was evaluated by t-test.

[4] = tested on: human lung carcinoma A549 cell line; assay: MTT antiproliferative assay, A549; type: cell-based; settings: for IC50: Homo sapiens, A549, MTT, 72 h
Experimental: as §1, §2, §3

[5] = Aqueous solubility by HPLC; settings: deionized water, thermodynamic from solid
Text: (§5) In parallel with the in vitro antitumor activity testing, the physicochemical properties of the target caged xanthone derivatives were theoretically predicted and experimentally determined in an effort to identify potential druglike compounds prior to the time-consuming and costly development and optimization of derivatives that may ultimately fail in efficacy experiments in vivo. The partition coefficient (logD) was experimentally determined on a Gemini Profiler instrument (pION, Inc., Woburn, MA, USA) by a potentiometric titration method. The polar surface area (PSA), as well as intestinal absorption level, were theoretically predicted by Accelrys Discovery Studio 4.0 (BIOVIA, San Diego, CA, USA) using the ADMET protocol. […] The permeability coefficient (Pe) was determined using a standard parallel artificial membrane permeability assay (PAMPA) on a PAMPA Explorer instrument (pION).
(§6) A HPLC system with an ultraviolet (UV) detector was used to detect the solubility of the compounds. The optimal wavelength was 290 nm. Ethanol/water (85:15) was an efficient eluent at a flow rate of 0.5 mL/min. The compounds were stirred in deionized water overnight to maximize the retention of the compounds in solution. Then, the solutions were filtered and the supernatant was used as a fluid sample for HPLC detection. The permeability (Pe) of the compounds was tested with the help of a standard PAMPA (pION). PAMPA was performed on a PAMPA Explorer instrument (pION) with the PAMPA Explorer command software (Version 3.7.4.1). The compounds were diluted to 10 mM with the system solution buffer (pH 7.4). Then, 150 μL of the diluted compound solution was transferred to a UV plate, and the UV spectrum was collected and used as a reference. Then, paint the membrane with 5 μL of gastrointestinal tract (GIT) lipid. The acceptor chamber was filled with 200 μL of acceptor solution buffer, and the donor chamber was filled with 200 μL of diluted compound solution. The PAMPA sandwich was assembled and left at 25 °C for 4 h. The UV spectra (240–500 nm) from the donor and the acceptor were collected. The permeability coefficient was calculated with the PAMPA Explorer Command software (Version 3.7.4.1) based on the area under the curve (AUC) of the reference plate, the donor plate, and the acceptor plate. The permeability coefficient of the compound was tested for four times, and the data are shown as the average values.

[6] = tested on: taxol-resistant A549 cell line (A549/taxol); assay: MTT antiproliferative assay, A549/taxol; type: cell-based; settings: Homo sapiens
Experimental: as §1, §2, §3

[7] = Parallel artificial membrane permeability assay (PAMPA)
Text: as §5
as §6, with “The PAMPA sandwich was assembled and left at 25 °C for 4 h.” left out

U2OS cells = assay: MTT antiproliferative assay, U2OS; type: cell-based; settings: Homo sapiens, 72 h
[8] = tested on: cisplatin-resistant A549 cell line (A549/cisplatin); assay: MTT antiproliferative assay, A549/cisplatin; type: cell-based; settings: Homo sapiens, 72 h
Experimental: as §1, §2, §3

[9] = logD by potentiometric titration (Gemini Profiler); type: physicochemical; settings: pH 7.4; measured on Gemini Profiler instrument (pION); read-out: Log D 7.4
[10] = tested on: lung cancer A549 transplanted mouse model; assay: In vivo tumor growth inhibition, intravenous administration; set-up: species or system Kunming mice; settings: for Body Weight After-Dose / Inhibitory Rate / Weight of Tumor: two weeks
Experimental: The lung cancer A549 transplanted mouse model was employed. DDO-6101 and antitumor drug 5-fluorouracil (5-FU) were also tested for comparison.
as §4

[11] = A549/Taxol, MTT, 72 h, read-out: IC50 A549/Taxol

Structure (SMILES)	IC50 [1]	IC50 [2]	Body Weight After-Dose [3]	Inhibitory Rate [3]	Weight of Tumor [3]	Body Weight Pre-Dose [3]	IC50 [4]	solubility [5]	IC50 [6, 11]	Papp at 4 h, 10 mM ([7]; pH 5)	Papp at 4 h, 10 mM ([7]; pH 6.2)	Papp at 4 h, 10 mM ([7]; pH 7.4)	IC50 (U2OS cells)	IC50 [8]	logD [9]	Body Weight Pre-Dose ([10]; 20 mg/kg)	Body Weight After-Dose ([10]; 20 mg/kg)	Inhibitory Rate ([10]; 20 mg/kg)	Weight of Tumor ([10]; 20 mg/kg)	further results
CC(C)=CCC12OC(C)(C)C3CC(C=C4C(=O)c5c(OCc6cn(CCN7CCOCC7)nn6)cccc5OC431)C2=O (centres unmarked) [Compound 8g]	3790 ± 430 nM	280 ± 30 nM	27.73 ± 2.78 g	66.43%	0.47 ± 0.12 ^a g	20.67 ± 1.20 g	310 ± 20 nM	3.02 mM (≈ 1740 µg/mL)	420 ± 50 nM	51.3 ± 4.8 ×10⁻⁶ cm/s	63.1 ± 5.6 ×10⁻⁶ cm/s	74.4 ± 6.8 ×10⁻⁶ cm/s	950 ± 210 nM	330 ± 70 nM	1.3	20.67 ± 1.30 g	27.73 ± 2.78 g	71.32%	0.40 ± 0.14 ^b g	fold higher activity than DDO-6101 in A549 cells ([4]; from IC50 values): approximately eight-fold; IC50 ([6]; range over both resistant A549 lines and both compounds, read-out: IC50 values, taxol-resistant and cisplatin-resistant A549 cell lines): 330 to 550 nM; Pe range ([7]; range under different pH from 5.0 to 7.4): 51.3–74.4 × 10^–6 cm/s; Body Weight Pre-Dose ([10]; 5 mg/kg): 20.80 ± 1.53 g; Body Weight After-Dose ([10]; 5 mg/kg): 28.53 ± 2.81 g; Inhibitory Rate ([10]; 5 mg/kg): 30.88%; Weight of Tumor ([10]; 5 mg/kg): 0.94 ± 0.24 ^a g; Body Weight Pre-Dose ([10]; 10 mg/kg): 21.40 ± 1.81 g; Body Weight After-Dose ([10]; 10 mg/kg): 28.08 ± 2.66 g; Inhibitory Rate ([10]; 10 mg/kg): 52.21%; Weight of Tumor [10]: 0.65 ± 0.17 ^b g
CC(C)=CCC12OC(C)(C)C3CC(C=C4C(=O)c5c(OCc6cn(CCCN7CCN(C)CC7)nn6)cccc5OC431)C2=O (centres unmarked) [Compound 8j]	2910 ± 30 nM	1090 ± 210 nM					930 ± 80 nM	4.02 mM (≈ 2420 µg/mL)	820 ± 80 nM	9.7 ± 0.5 ×10⁻⁶ cm/s	43.2 ± 0.7 ×10⁻⁶ cm/s	64.9 ± 5.4 ×10⁻⁶ cm/s	5860 ± 210 nM	1290 ± 110 nM	0.7					melting point: 126 to 129 °C
CC(C)=CCC12OC(C)(C)C3CC(C=C4C(=O)c5c(O)cccc5OC431)C2=O (centres unmarked) [DDO-6101, reference compound]	2040 ± 80 nM	710 ± 100 nM	26.69 ± 1.90 g	21.43%	1.10 ± 0.25 ^b g	21.13 ± 1.02 g		< 0.005 mM	460 ± 30 nM	23.6 ± 5.5 ×10⁻⁶ cm/s	25.8 ± 1.1 ×10⁻⁶ cm/s	18 ± 3.9 ×10⁻⁶ cm/s	5350 ± 80 nM		2.9	21.13 ± 1.22 g	27.69 ± 1.90 g	34.56%	0.89 ± 0.18 ^b g	
